Experimental data taken from patent publication US5759768A, “Assays for factors affecting circularization of DNA, assays for factors affecting DNA integration, factors, and uses thereof” (priority 1995, dated 1998).

Test system: viral DNA
Test: PCR analysis of circular viral DNA formed in vitro
Type: biochemical, HIV-1
Description: The following oligonucleotides were used for PCR: PBS, 5'-GTCGCCGCCCCTCGCCTC-3'(SEQ ID No. 1); tat, 5'-[…]-3'(SEQ ID No. 2); nef, 5'-[…]-3'(SEQ ID No. 3); R1, 5'-[…]-3'(SEQ ID No. 4); R2, 5'-[…]-3'(SEQ ID No. […]). One hundred microliter reactions contained 10 mM Tris hydrochloride (pH 8.3), 50 mM KCl, 1.5 mM MgCl2, 0.001% (w/v) gelatin, 200 μM each dATP, dCTP, dGTP, and dTTP, 1 μM each of the indicated primer, and 2.5 units of AmpliTaq recombinant Taq DNA polymerase (Perkin Elmer Cetus Co., Norwalk, Conn.). For amplification of viral DNA from cytoplasmic extracts, each reaction contained approximately 1/30 the amount of DNA from a 3 ml extract. For amplification of viral DNA from Hirt extractions, each reaction contained DNA from the equivalent of 2×10^6 cells. An initial denaturation step at 98° C. was performed for 10 minutes. Thirty cycles of the PCR reaction were then performed with an annealing temperature of 60° C. for 1 minute, an extension temperature of 72° C. for 5 minutes, and a denaturation temperature of 95° C. for 1 minute. Reaction products were visualized following electrophoresis on 1% agarose gel containing ethidium bromide. […]
Additional rounds of PCR amplification were necessary to detect the presence of a DNA fragment corresponding to the 2-LTR junction fragment when viral DNA from Hirt supernatants of infected cells were used, presumably due to the lower concentration of 2-LTR circles as compared to 1-LTR circles in these preparations (data not shown). Similarly, 2-LTR junction fragments were not readily detected among the amplification products of circular viral DNA formed in vitro, most likely due to the low concentration of simple 2-LTR circles and competition by the other forms of circular viral DNA (1-LTR circles and 2-LTR circles formed by autointergration) present at much higher concentrations. […]

SMILES: Nc1ncnc2c1ncn2[C@@H]1O[C@H](COP(=O)(O)OP(=O)(O)OP(=O)(O)O)[C@@H](O)[C@H]1O [ATP, adenosine triphosphate]
- PCR amplification product (2-LTR junction, R region primers) (SalI digested circular DNA formed with added ATP): A DNA fragment of the same size was detected
- PCR amplification products (PBS and tat primers, autointegration) (extracts incubated with 1 mM ATP): a mixture of DNA fragments of heterogeneous lengths
- PCR amplification product (1-LTR circle junction) (extracts treated with 1 mM ATP, PBS and nef primers): a DNA fragment having the size expected for a 1-LTR circle junction was generated
